Measurements published in patent publication US20120059162A1, “FUSED IMIDAZOLE DERIVATIVE HAVING TTK INHIBITORY ACTION” (Oncotherapy Science, Inc., priority 2009, published 2012).

What follows are molecules tested against T1, TTK (Homo sapiens, UniProt P33981) (assay: TTK assay: screening of TTK kinase activity suppressing action using p38 MAPK peptide). Conditions: p38 MAPK peptide substrate; read-out: TTK IC50.
T1 sequence (P33981 1-857): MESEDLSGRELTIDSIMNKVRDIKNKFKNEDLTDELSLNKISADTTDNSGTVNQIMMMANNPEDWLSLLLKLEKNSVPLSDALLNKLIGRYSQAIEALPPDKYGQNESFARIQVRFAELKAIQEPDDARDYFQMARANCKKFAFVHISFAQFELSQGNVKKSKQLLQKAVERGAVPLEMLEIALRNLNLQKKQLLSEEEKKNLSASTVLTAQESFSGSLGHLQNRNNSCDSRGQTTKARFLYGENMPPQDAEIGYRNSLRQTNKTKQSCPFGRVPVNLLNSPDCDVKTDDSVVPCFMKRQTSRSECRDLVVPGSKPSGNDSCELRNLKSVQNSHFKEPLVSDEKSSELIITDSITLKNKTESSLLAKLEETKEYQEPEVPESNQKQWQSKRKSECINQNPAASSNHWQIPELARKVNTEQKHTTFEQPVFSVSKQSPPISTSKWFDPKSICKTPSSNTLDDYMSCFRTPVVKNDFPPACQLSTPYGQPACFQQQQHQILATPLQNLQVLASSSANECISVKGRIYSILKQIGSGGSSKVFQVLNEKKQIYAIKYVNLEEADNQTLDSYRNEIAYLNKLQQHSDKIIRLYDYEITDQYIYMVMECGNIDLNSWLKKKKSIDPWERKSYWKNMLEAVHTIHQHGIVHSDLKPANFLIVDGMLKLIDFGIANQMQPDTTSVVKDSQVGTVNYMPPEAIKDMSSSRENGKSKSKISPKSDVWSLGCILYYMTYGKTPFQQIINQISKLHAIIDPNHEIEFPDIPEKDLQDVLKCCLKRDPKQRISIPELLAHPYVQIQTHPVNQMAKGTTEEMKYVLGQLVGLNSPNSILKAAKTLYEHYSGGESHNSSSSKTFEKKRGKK
Format: biochemical
Description: Screening of a compound having a TTK kinase activity suppressing action using p38 MAPK peptide
A test substance 1.0 μL (solvent: 10% (v/v) DMSO), TTK solution 5 μL (composition: 4 μg/ml TTK, 25 mM Tris-HCl, pH7.5, 5 mM β-glycerophosphate, 2 mM DTT, 0.1 mM Na3VO4, 5 mM MgCl2, 0.1% (w/v)BSA) and a substrate solution 5 μL (composition: 60 μM p38 MAPK peptide, 60 μM ATP, 25 mM Tris-HCl, pH7.5, 5 mM β-glycerophosphate, 2 mM DTT, 0.1 mM Na3VO4, 5 mM MgCl2, 0.1% (w/v)BSA) were mixed in the wells of a 384-well microtiter plate (manufactured by Corning Incorporated) made of polypropylene and loaded in a constant temperature and humidity room.
From the resultant mixture, an aliquot of 1.7 μL was taken out and mixed with the reaction terminating solution (60 μl) in the wells of a 384-well microtiter plate (manufactured by Corning Incorporated) made of polypropylene. Thereafter, 40 μL of the mixture was transferred to a 384-well black NeutrAvidin plate (PIERCE), sealed and incubated under room temperature for 30 minutes. […] Similarly, the plate was washed with TTBS (100 μL) three times, 40 μl of a secondary antibody solution (Eu-N1 labeled Anti-mouse IgG (Perkin Elmer, #AD0124)) was added and incubated under room temperature for 30 minutes. After the plate was washed with TTBS (100 μL) five times, 40 μL of an enhance solution (Perkin Elmer) was added and incubated under room temperature for 5 minutes. […] Based on the fluorescence value in the absence of a test substance, the suppression activity of a test substance was measured.

Row | SMILES | IC50 [nM]
1 | CC(C)(C)CNc1cc(NCC2CCOCC2)c2ncc(-c3ccc(C(=O)NC4CC4)cc3)n2n1 [Example 2-57] | 4.5
2 | O=C(NC1CC1)c1ccc(-c2cnc3c(NCC4CCOCC4)cc(NC4CCCOC4)nn23)cc1 (centres unmarked) [Example 2-83] | 5.2
3 | CC(=O)N1CCC(CNc2nc(-c3ccc(C#N)cc3)cn3c(-c4ccc(C(=O)NC5CC5)cc4)cnc23)CC1 [Example 1-233] | 20.2
4 | Cn1cncc1CNc1cc(NC2CCCCC2)nn2c(-c3ccc(C(=O)NC4CC4)cc3)cnc12 [Example 2-148] | 3.9
5 | O=C(NC1CC1)c1ccc(-c2cnc3c(NCC4CCOCC4)cc(Oc4cccc(F)c4O)nn23)cc1 [Example 2-117] | 2.9

Same assay, conditions: read-out: TTK IC50

Row | SMILES | IC50 [nM]
6 | Cc1cc(-c2cnc3c(NCC4CCOCC4)cc(NC4CCCC4)nn23)ccc1C(=O)NC1CC1 [Example 2-232] | 2.8
7 | O=C(NC1CC1)c1ccc(-c2cnc3c(NCC4CCOCC4)cc(OCC45CC6CC(CC(C6)C4)C5)nn23)cc1 [Example 2-190] | 16.1
8 | O=C(NC1CC1)c1ccc(-c2noc3c(NCC4CCOCC4)nc(NC4CCCC4)nc23)cc1 [Example 3-4, 4-(5-(cyclopentylamino)-7-((tetrahydro-2H-pyran-4-yl)methylamino)isoxazolo[4,5-d]pyrimidin-3-yl)-N-cyclopropylbenzamide] | 527

These molecules were tested on A549 (assay: A549 assay: screening of cancer cell growth inhibiting compound). Conditions: Homo sapiens, 72 h; A549 cells, three days, WST-8; read-out: A549 IC50.
Format: cell-based
Description: Screening of Cancer Cell Growth Inhibiting Compound
A cell suspension solution (RERF-LC-AI, A549: 1×10^4/ml, MRC5: 3×10^4/ml and 1×10^5/ml) adjusted to an appropriate concentration with D-MEM (hereinafter, referred to as a culture solution and manufactured by Nacalai Tesque Inc.) supplemented with 10% FBS (HyClone) was added to the wells of a 96-well plate (hereinafter, well plate) at a rate of 100 μL/well and incubated in a CO2 incubator at 37° C. for a day. […] Next, cells were added to each well of the well plate prepared and the above compound dilution solution was added at a rate of 100 μL/well to obtain 200 μL/well. Thereafter, the cells were incubated in the CO2 incubator at 37° C. for further three days. To each well of the well plate, 10 μL of a WST-8 kit (Kishida Chemical Co., Ltd.) solution for counting the number of cells was added and a color reaction was performed in the CO2 incubator for 1 to 4 hours. After the absorbance at 450 nm (reference wavelength: 620 nm) was measured by a microplate reader, suppressing action of the test substance was calculated based on the absorbance value in the absence of a test substance.

Row | SMILES | IC50 [µM]
9 | CC(C)(C)CNc1cc(NCC2CCOCC2)c2ncc(-c3ccc(C(=O)NC4CC4)cc3)n2n1 [Example 2-57] | 0.05 to 0.5
10 | O=C(NC1CC1)c1ccc(-c2cnc3c(NCC4CCOCC4)cc(NC4CCCOC4)nn23)cc1 (centres unmarked) [Example 2-83] | 0.05 to 0.5
11 | CC(=O)N1CCC(CNc2nc(-c3ccc(C#N)cc3)cn3c(-c4ccc(C(=O)NC5CC5)cc4)cnc23)CC1 [Example 1-233] | 0.5 to 1
12 | Cn1cncc1CNc1cc(NC2CCCCC2)nn2c(-c3ccc(C(=O)NC4CC4)cc3)cnc12 [Example 2-148] | 0.5 to 1
13 | O=C(NC1CC1)c1ccc(-c2cnc3c(NCC4CCOCC4)cc(Oc4cccc(F)c4O)nn23)cc1 [Example 2-117] | ≤ 0.05
14 | CC(=O)N1CC=C(c2cn3c(-c4ccc(C(=O)NC5CC5)cc4)cnc3c(NCC3CCOCC3)n2)CC1 [Example 1-249] | 0.5 to 1
15 | O=C(NC1CC1)c1ccc(-c2cnc3c(NCC4CCOCC4)nc(-c4ccsc4)cn23)cc1 [Example 1-177] | 0.05 to 0.5
16 | CC(C)CNc1nc(C2=CCCC2)cn2c(-c3ccc(C(=O)NC4CC4)cc3)cnc12 [Example 1-108] | 1 to 10
17 | C/C=C/c1cn2c(-c3ccc(C(=O)NC4CC4)cc3)cnc2c(NCC2CCOCC2)n1 [Example 1-243] | 0.5 to 1
18 | CC(C)CNc1nc(-c2ccc3occc(=O)c3c2)cn2c(-c3ccc(C(=O)NC4CC4)cc3)cnc12 [Example 1-110] | 0.5 to 1
19 | CC(C)CNc1nc(-c2ccc(NC3CCOCC3)cc2)cn2c(-c3ccc(C(=O)NC4CC4)cc3)cnc12 [Example 1-170] | 1 to 10
20 | CC(C)CNc1nc(-c2ccc(CNS(C)(=O)=O)cc2)cn2c(-c3ccc(C(=O)NC4CC4)cc3)cnc12 [Example 1-119] | 0.5 to 1
21 | CC(C)CNc1nc(-c2ccc(C(=O)N3CCOCC3)cc2)cn2c(-c3ccc(C(=O)NC4CC4)cc3)cnc12 [Example 1-153] | 1 to 10
22 | O=C(NC1CC1)c1ccc(-c2cnc3c(NCC4CCOCC4)nc(C4=CCNCC4)cn23)cc1 [Example 1-247] | 1 to 10
23 | CC(C)CNc1nc(-c2cccc(C(=O)NCCN3CCOCC3)c2)cn2c(-c3ccc(C(=O)NC4CC4)cc3)cnc12 [Example 1-139] | 0.5 to 1
24 | CC(C)CNc1nc(-c2ccc(NCCCN)cc2)cn2c(-c3ccc(C(=O)NC4CC4)cc3)cnc12 [Example 1-169] | 1 to 10
25 | CC(C)CNc1nc(-c2ccc(C(=O)NCCN3CCOCC3)cc2)cn2c(-c3ccc(C(=O)NC4CC4)cc3)cnc12 [Example 1-147] | 1 to 10
26 | Cc1nc(C)c(-c2cc(NCC(C)C)c3ncc(-c4ccc(C(=O)NC5CC5)cc4)n3n2)s1 [Example 2-8] | 0.5 to 1
27 | CC(C)CNc1nc(-c2ccc(C(=O)c3ccccc3)cc2)cn2c(-c3ccc(C(=O)NC4CC4)cc3)cnc12 [Example 1-125] | 1 to 10
28 | CC(C)CNc1nc(-c2ccc(NC(=O)N3CCCC3)cc2)cn2c(-c3ccc(C(=O)NC4CC4)cc3)cnc12 [Example 1-121] | 0.5 to 1
29 | CC(C)CNc1nc(-c2ccc(S(=O)(=O)N3CCCC3)cc2)cn2c(-c3ccc(C(=O)NC4CC4)cc3)cnc12 [Example 1-115] | 1 to 10
30 | O=C(NC1CC1)c1ccc(-c2cnc3c(NCC4CCOCC4)nc(C=C4CCCCC4)cn23)cc1 [Example 1-248] | 1 to 10

Next, values leading:

Row | IC50 [µM] | SMILES
31 | 0.05 to 0.5 | CC(C)CNc1nc(-c2ccc(N)cc2)cn2c(-c3ccc(C(=O)NC4CC4)cc3)cnc12 [Example 1-114]
32 | 0.5 to 1 | CC(C)CNc1nc(-c2cccc(NC(=O)CCCN3CCOCC3)c2)cn2c(-c3ccc(C(=O)NC4CC4)cc3)cnc12 [Example 1-158]
33 | 1 to 10 | CC(C)CNc1nc(-c2cccc(C(=O)N3CCN(C)CC3)c2)cn2c(-c3ccc(C(=O)NC4CC4)cc3)cnc12 [Example 1-144]
34 | 0.05 to 0.5 | COCCNC(=O)c1cccc(-c2cn3c(-c4ccc(C(=O)NC5CC5)cc4)cnc3c(NCC(C)C)n2)c1 [Example 1-140]
35 | 1 to 10 | CC(C)CNc1nc(-c2ccc(O)c(Cl)c2)cn2c(-c3ccc(C(=O)NC4CC4)cc3)cnc12 [Example 1-120]
36 | 1 to 10 | CC(C)CNc1nc(-c2cccc(NC(=O)N3CCOCC3)c2)cn2c(-c3ccc(C(=O)NC4CC4)cc3)cnc12 [Example 1-155]
37 | 0.5 to 1 | CC(C)CNc1nc(-c2cccnc2)cn2c(-c3ccc(C(=O)NC4CC4)cc3)cnc12 [Example 1-107]
38 | 0.5 to 1 | COCC(=O)Nc1cccc(-c2cn3c(-c4ccc(C(=O)NC5CC5)cc4)cnc3c(NCC(C)C)n2)c1 [Example 1-156]
39 | 0.5 to 1 | CC(C)CNc1nc(-c2ccsc2)cn2c(-c3ccc(C(=O)NC4CC4)cc3)cnc12 [Example 1-103]
40 | 0.05 to 0.5 | CC(C)CNc1nc(-c2ccncc2)cn2c(-c3ccc(C(=O)NC4CC4)cc3)cnc12 [Example 1-111]
41 | 0.5 to 1 | CC(C)CNc1nc(-c2cccc(NC3CCOCC3)c2)cn2c(-c3ccc(C(=O)NC4CC4)cc3)cnc12 [Example 1-167]
42 | 1 to 10 | CC(C)CNc1nc(-c2cccc(NCCCN)c2)cn2c(-c3ccc(C(=O)NC4CC4)cc3)cnc12 [Example 1-166]
43 | 0.5 to 1 | CC(=O)Nc1ccc(-c2cn3c(-c4ccc(C(=O)NC5CC5)cc4)cnc3c(NCC(C)C)n2)cc1 [Example 1-163]
44 | 1 to 10 | CC(C)CNc1nc(-c2cccc(NC(=O)N3CCN(C)CC3)c2)cn2c(-c3ccc(C(=O)NC4CC4)cc3)cnc12 [Example 1-154]
45 | 1 to 10 | CC(C)CNc1nc(-c2cccc(NC(=O)[C@@H](N)CO)c2)cn2c(-c3ccc(C(=O)NC4CC4)cc3)cnc12 [Example 1-159]

Same assay, conditions: Homo sapiens, A549, 72 h, read-out: A549 IC50 (μM)

Row | SMILES | IC50 [µM]
46 | O=C(NC1CC1)c1ccc(-c2cnc3c(NCC4CCOCC4)nccn23)cc1 [Example 1-1, N-cyclopropyl-4-(8-((tetrahydro-2H-pyran-4-yl)methylamino)imidazo[1,2-a]pyrazin-3-yl)benzamide] | 1 to 10
47 | CC(C)CNc1nc(-c2ccccc2)cn2c(-c3ccc(C(=O)NC4CC4)cc3)cnc12 [Example 1-101] | 0.5 to 1
48 | CC(C)CNc1cc(-c2ccccc2)nn2c(-c3ccc(C(=O)NC4CC4)cc3)cnc12 [Example 2-7] | 0.5 to 1

Same assay, conditions: Homo sapiens; A549 cells; values given as IC50 intervals; read-out: A549 IC50

Row | SMILES | IC50 [µM]
49 | Cc1cc(-c2cnc3c(NCC4CCOCC4)cc(NC4CCCC4)nn23)ccc1C(=O)NC1CC1 [Example 2-232] | 0.05 to 0.5
50 | O=C(NC1CC1)c1ccc(-c2cnc3c(NCC4CCOCC4)cc(OCC45CC6CC(CC(C6)C4)C5)nn23)cc1 [Example 2-190] | 1 to 10
